Several values for one entry are separate records, joined by “and”; a condition that tells them apart may be missing. Equal entries are not always repeated. Where two headings read alike, the source gives them in different places.
Legend:
HIV-RT = target: T1, HIV-RT (Human immunodeficiency virus type 1 group M subtype B, UniProt P04585); test: Checkerboard combination of lavendamycin analogs with AZT-triphosphate in HIV-RT enzyme assay (Chou and Talalay); type: biochemical
T1 construct: 1 unit/mL of HIV-RT (Worthington Biochemical Corp., Freehold, N.J.); purchased Worthington Biochemical Corp., Freehold, N.J
Description: The results were analyzed by the method of Chou and Talalay based on the median-effect principle and represented by combination indices (CI) determined for each of the two drug combinations (e.g., see: Chou, T. C.; Talalay, P. “Quantitative Analysis of Dose-Effect Relationships: The Combined Effects of Multiple Drugs or Enzyme Inhibitors,” Adv. Enzyme Regul., 1984, 22, 27-65; and Chou, J.; Chou, T. C. “Dose-Effect Analysis with Microcomputers: Quantitation of ED50, LD50, Synergism, Antagonism, Low-Dose Risk, Receptor-Ligand Binding and Enzyme Kinetics,” In: A computer Software for IBM-PC and Manual, Cambridge, UK, Elsevier-Biosoft, 1987). This method involves the plotting of dose-effect curves for each agent and for each of the different combinations of the agents. The slope of the median-effect plot, which signifies the shape of the dose-effect curve, and the x intercept of the plot, which signifies the potency of each compound alone and each combination, were then used for a computerized calculation of a combination index.
The assay procedure described below is adapted from Okada et al. (Okada, H.; Mukai, H.; Inouye, Y; Nakamura, S. “Biological Properties of Streptonigrin Derivatives II. Inhibition of Reverse Transcriptase Activity,” J. Antibiot., 1986, 39, 306-308). The lavendamycin analogs were initially dissolved in DMSO at a concentration of 1 mg/mL. Occasionally, mild sonication and heat were used to dissolve the less soluble compounds. The dissolved analogs were then serially diluted in distilled water to achieve concentrations in the final reaction mixture ranging from 0.5-15 μM. In addition to the lavendamycin analogs, the final reaction mixture contained 100 mM Tris-HCl (pH 8.0), 5 mM MgCl2, 5 mM dithiothreitol, 60 mM NaCl, 0.2 mM [^3H] thymidine triphosphate(5 μCi well), 4 μg/mL poly (rA)-oligo(dT)12-18 (Amersham Pharmacia Biotech, Piscataway, N.J.) and 1 unit/mL of HIV-RT (Worthington Biochemical Corp., Freehold, N.J.) in a total volume of 300 μL. For each assay, the reaction mixture containing 8× buffer, double distilled H2O, ^3HTTP, template-primer and HIV-RT was pre-mixed in a 15-mL sterile tube in quantities required for the particular experiment. After adding the enzyme, the reaction mixture was mixed and kept on ice. The inhibitors, either AZT(Moravek Biochemicals, Brea, Calif.), analogs or both were added to appropriate wells in a 24 well microtiter plate and ddH2O was added to each well to bring the volume of all test wells to 100 μL. Two hundred μL of the chilled reaction mixture was then added to each of the test wells, mixed, and incubated for 1 hr at 37° C. Several control wells with no inhibitors were included on each test plate. After stopping the reactions with 25 μL 0.1 M EDTA, triplicate samples of 15 μL from each test well were spotted on DE81 ion exchange filter paper squares (Whatman Paper, Maidstone, England). After drying, each filter was washed for 10 minutes three times with 5% TCA-NHPO4, three times with 0.6M NaCl-[…] Na Citrate, one time with ddH2O and one time with 95% ethanol. After drying the individual filter papers were added to 5 mL Scintiverse E (Fisher Scientific, Chicago, Ill.) scintillation fluid and the amount of 3H-TTP uptake measured as counts per minute on a Beckman liquid scintillation counter. […] The results were then analyzed using Calcusyn, a windows software program for dose effect analysis designed by T. -C. Chou and M. P. Hayball and published by Biosoft® (UK).

[1] = Cytotoxicity assay (MTT), human lymphocytic cell lines, pooled data; type: cell-based; conditions: human lymphocytic cell lines CCRF-CEM and H-9, pooled data, H-9 and CEM inhibited by 50%, read-out: Mean CC50 (Human Cell Lines) ± SEM (no. of expts)
Description: (§1) Normal murine spleen cells were washed in HBSS, cultured at 2.5×10^6 or 5×10^6 cells per mL in RPMI 1640 (with Hepes) complete medium with 2 mM-L-glutamine, 1 mM sodium pyruvate, 0.05 mM β-mercaptoethanol, penicillin, streptomycin, and amphotericin B with 10% fetal calf serum and Concanavalin A (ConA) at 2.5 μg/mL in a 96-well microtiter plate. A range of diluted analogs were added to triplicate culture wells and the cells were incubated at 37° C. in 5% CO2. Wells containing cells, media and ConA were used as controls. Forty-eight hours post incubation, 20 μL of the vital dye MTT (3-[4,5-Dimethylthiazol-2-yl]-2,5-diphenyltetrazolium bromide; thiazolyl blue) at 5 mg/mL was added to each well and the cultures re-incubated for 4-6 hours. Following centrifugation, the supernatants were decanted and the stained cells were resuspended in 100 μL of 0.4% HCl acidified isopropanol. The optical densities of each well were read at 600 nm using a Cambridge Technologies series 700 microplate reader. The human lymphocytic cell lines CCRF-CEM (ATCC: HTB 176) and H-9 (ATCC: CCL 119) were subcultured from recently cultured cells grown in complete RPMI 1640 medium as described above but without the β-mercaptoethanol and ConA at 6.25×10^5 and 2×10^6 per mL in a 96 well culture plate. These cell numbers represented log phase and early stationary phase of the freshly cultured cells. As these cell lines rapidly reproduce without mitogenic stimulation, Con A was not used. A range of analogues or media alone was added in triplicate to the cultures and the cultures incubated, pulsed with MTT, harvested and their growth estimated as described above for the murine cultures. The CC50 or the concentration of drug which inhibited cell growth as estimated by MTT formazan production to 50% of that of untreated control cells was determined by linear interpolation for each lavendamycin analog.

[2] = Cytotoxicity assay (MTT), normal murine spleen cells stimulated with concanavalin A; type: cell-based; conditions: normal murine spleen cells stimulated with concanavalin A; normal mouse spleen stimulated with concanavalin A inhibited by 50%; read-out: Mean CC50 (Normal Mouse Spleen) ± SEM (no. of expts)
Description: as §1

[3] = analogue 0.25 μM + AZT 0.007 μM, Trial 1
[4] = analogue 0.25 μM + AZT 0.007 μM, Trial 2
[5] = analogue 0.25 μM + AZT 0.01 μM, Trial 1
[6] = analogue 0.25 μM + AZT 0.01 μM, Trial 2
[7] = analogue 0.25 μM + AZT 0.02 μM, Trial 1
[8] = analogue 0.25 μM + AZT 0.02 μM, Trial 2
[9] = analogue 0.5 μM + AZT 0.007 μM, Trial 1
[10] = analogue 0.5 μM + AZT 0.007 μM, Trial 2
[11] = analogue 0.5 μM + AZT 0.01 μM, Trial 1
[12] = analogue 0.5 μM + AZT 0.01 μM, Trial 2
[13] = analogue 0.5 μM + AZT 0.02 μM, Trial 1
[14] = analogue 0.5 μM + AZT 0.02 μM, Trial 2
[15] = analogue 0.75 μM + AZT 0.01 μM, Trial 1
[16] = analogue 0.75 μM + AZT 0.01 μM, Trial 2
[17] = analogue 0.75 μM + AZT 0.02 μM, Trial 1
[18] = analogue 0.75 μM + AZT 0.02 μM, Trial 2
[19] = analogue 1.5 μM + AZT 0.007 μM, Trial 1
[20] = analogue 1.5 μM + AZT 0.007 μM, Trial 2
[21] = analogue 1.5 μM + AZT 0.01 μM, Trial 1
[22] = analogue 1.5 μM + AZT 0.01 μM, Trial 2
[23] = analogue 1.5 μM + AZT 0.02 μM, Trial 1
[24] = analogue 1.5 μM + AZT 0.02 μM, Trial 2

| SMILES | Combination index (HIV-RT; [3]) | Combination index (HIV-RT; [4]) | Combination index (HIV-RT; [5]) | Combination index (HIV-RT; [6]) | Combination index (HIV-RT; [7]) | Combination index (HIV-RT; [8]) | Combination index (HIV-RT; [9]) | Combination index (HIV-RT; [10]) | Combination index (HIV-RT; [11]) | Combination index (HIV-RT; [12]) | Combination index (HIV-RT; [13]) | Combination index (HIV-RT; [14]) | Combination index (HIV-RT; [15]) | Combination index (HIV-RT; [16]) | Combination index (HIV-RT; [17]) | Combination index (HIV-RT; [18]) | Combination index (HIV-RT; [19]) | Combination index (HIV-RT; [20]) | Combination index (HIV-RT; [21]) | Combination index (HIV-RT; [22]) | further results |
| --- | --- | --- | --- | --- | --- | --- | --- | --- | --- | --- | --- | --- | --- | --- | --- | --- | --- | --- | --- | --- | --- |
| COC(=O)c1nc(-c2ccc3c(n2)C(=O)C(NC(C)=O)=CC3=O)c2[nH]c3ccccc3c2c1C [Compound 11, 7-acetyllavendamycin methyl ester] | 0.57 | 0.48 | 0.94 | 0.89 | 0.90 | 0.68 | 0.81 | 0.71 | 0.84 | 0.76 | 0.72 | 0.84 | 1.20 | 1.08 | 0.94 | 0.84 | 1.40 | 1.23 | 1.40 | 1.12 | Combination index (HIV-RT): 1.00 and 1.30; Combination index (HIV-RT; [23]): 1.17; Combination index (HIV-RT; [24]): 1.08; CC50 at 48 h [1]: 31 ± 2 µM; CC50 at 48 h [2]: 62 ± 5 µM |
| CC(=O)NC1=CC(=O)c2ccc(-c3nc(C(N)=O)cc4c3[nH]c3ccccc34)nc2C1=O [Compound 16, 7-N-Acetyldemethyllavendamycin Amide] | 0.82 | 0.80 | 0.85 | 1.18 | 0.67 | 0.75 | 0.54 | 0.65 | 0.87 | 0.70 | 0.58 | 0.60 | 1.0 | 1.20 | 1.10 | 1.10 | 0.66 | 0.67 | 1.0 | 1.0 | Combination index (HIV-RT; analogue 0.75 μM + AZT 0.007 μM, Trial 1): 1.50; Combination index (HIV-RT; analogue 0.75 μM + AZT 0.007 μM, Trial 2): 1.61; Combination index (HIV-RT; [23]): 1.00; Combination index (HIV-RT; [24]): 1.00; CC50 at 48 h [1]: 95 ± 45 µM; CC50 at 48 h [2]: 50 ± 7 µM |

Reference: patent publication US20060079497A1, “Lavendamycin analogues and methods of synthesizing and using lavendamycin analogues” (Ball State University, priority 2004, published 2006)
